This note sets out measurements from the supplement of paper PMC10307832.

Experiment in all cases: relative viability (nuclei count vs DMSO), 5 days (fraction); higher = more cells survive
Compound in assay [1]: CS(=O)(=O)N1CCN(Cc2cc3nc(-c4cccc5[nH]ncc45)nc(N4CCOCC4)c3s2)CC1 [Pictilisib] + CC1(C)CCC(c2ccc(Cl)cc2)=C(CN2CCN(c3ccc(C(=O)NS(=O)(=O)c4ccc(N[C@H](CCN5CCOCC5)CSc5ccccc5)c(S(=O)(=O)C(F)(F)F)c4)cc3)CC2)C1 [Navitoclax] (partner 0.5 µM)
In short, it runs like this: (§1)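 The day after seeding in 1536-well plates, lung cancer cell lines were treated by pin tool with a single drug, or with a fixed anchor-drug dose together with five library-drug doses (not always all listed) in √10 steps. After 5 days, a combined fix-and-stain solution (final 0.05% Triton X-100, 1% formaldehyde, 1 ug/ml Hoechst) was added. Nuclei counted on 4× images gave relative viability as treated counts over vehicle counts, reported as the median of duplicate plates.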

Compound in assay [2]: CS(=O)(=O)N1CCN(Cc2cc3nc(-c4cccc5[nH]ncc45)nc(N4CCOCC4)c3s2)CC1 [Pictilisib] + Cc1cc(Nc2cc(N3CCN(C)CC3)nc(Sc3ccc(NC(=O)C4CC4)cc3)n2)n[nH]1 [Tozasertib] (partner 0.1 µM)
An outline of the steps:
as §1

Compound in assay [3]: NC1(c2ccc(-c3nc4ccn5c(=O)[nH]nc5c4cc3-c3ccccc3)cc2)CCC1 [MK-2206] + COc1cccc2cc(-c3nc([C@H]4CC[C@H](C(=O)O)CC4)n4ncnc(N)c34)[nH]c12 [OSI-027] (partner 0.5 µM)
In short, it runs like this: as §1

Compound in assay [4]: NC1(c2ccc(-c3nc4ccn5c(=O)[nH]nc5c4cc3-c3ccccc3)cc2)CCC1 [MK-2206] + O=C(CCCCCCC(=O)Nc1ccccc1)NO [Vorinostat] (partner 1 µM)
In short, it runs like this:
as §1

Compound in assay [5]: NC1(c2ccc(-c3nc4ccn5c(=O)[nH]nc5c4cc3-c3ccccc3)cc2)CCC1 [MK-2206] + O=C(c1cc(Cc2n[nH]c(=O)c3ccccc23)ccc1F)N1CCN(C(=O)C2CC2)CC1 [Olaparib] (partner 8 µM)
In short, it runs like this:
as §1

Turning to UMC-11, the relative viability in assay [1] (first compound 0.02 µM) amounted to 0.343; in assay [1] (first compound 0.06325 µM), 0.281; in assay [1] (first compound 0.6325 µM), 0.349; in assay [1] (first compound 2 µM) it was 0.281; in assay [2] (first compound 0.02 µM) it was 0.202; in assay [2] (first compound 0.06325 µM), 0.192. The relative viability was 0.2 in assay [2] (first compound 0.6325 µM); 0.216 in assay [2] (first compound 2 µM); 0.491 in assay [3] (first compound 0.01 µM); 0.567 in assay [3] (first compound 0.03162 µM); 0.46 in assay [3] (first compound 0.3162 µM); 0.521 in assay [3] (first compound 1 µM). Further, the relative viability stood at 0.388 in assay [4] (first compound 0.01 µM); 0.365 in assay [4] (first compound 0.03162 µM); 0.416 in assay [4] (first compound 0.3162 µM); 0.379 in assay [4] (first compound 1 µM); 0.52 in assay [5] (first compound 0.01 µM); 1.16 in assay [5] (first compound 0.03162 µM). The relative viability was 0.381 in assay [5] (first compound 0.3162 µM) and 0.363 in assay [5] (first compound 1 µM).
